Patent EP3442594B1, “BLOCK COPOLYMER FOR […] RESISTANCE OF TUMOURS TO CHEMOTHERAPY, ITS POLYMER-DRUG CONJUGATE, PHARMACEUTICAL COMPOSITION CONTAINING THEM, METHOD OF PREPARATION AND USE THEREOF” (Ustav makromolekularni chemie AV CR, v.v.i., priority 2016, dated 2017)
In brackets after ≈: the same amount, converted by molar mass. Several values for one entry are separate records, joined by “and”; a condition that tells them apart may be missing. Identical values can stand only once. Like-named read-outs stand apart in the source and are kept apart here.

Columns and labels:
[1] = Release of docetaxel or its derivative from polymer conjugates in phosphate buffers (HPLC); format: physicochemical; conditions: pH 7.4 compared with pH 5.0, 37°C, conjugate 5 mg/mL
Experimental: At predetermined time intervals 200 µL of incubation solution was collected and after the extraction of released drugs and derivatives thereof into chloroform their amounts were determined using an HPLC system (Shimadzu HPLC system equipped with a column with a reverse phase Chromolith Performance RP-18e (100 x 4.6 mm) and UV-VIS detector Shimadzu SPD-10AVvp (230 nm), eluent water-acetonitrile with gradient from 50 to 100 vol% of acetonitrile, flow rate of 0.5 mL x min^-1).

[2] = system: murine T-cell lymphoma EL4; assay: In vivo antitumour effect in the treatment of EL4 lymphoma; design: species or system C57BL/6 mice
Experimental: (§1) The in vivo antitumour effect of micellar diblock polymer conjugate of Example 28 carrying doxorubicin (DOX-DB) was studied on a model of murine T-cell lymphoma EL4 in the C57BL/6 inbred strains of mice. The conjugate was administered to mice intravenously (i.v.) in a single dose equivalent to 7.5 mg of doxorubicin/kg. The drug was injected 8 days after subcutaneous administration of 1 x 10^5 EL4 tumour cells, at a time when tumours are developed and the tumour bed size is about 6-8 mm in diameter. […] Further, the free doxorubicin (DOX) was used for treatment, injected at a total dose of 10 mg/kg, which, due to the different pharmacokinetics of a low molecular weight drug and the associated danger of high systemic toxicity, was injected in two partial intravenous doses on the 8th and 12th day after transplantation of tumour cells (each dose of 5 mg of doxorubicin).
(§2) Days mean the death of animals after administration of tumour cells (1 x 10^5 cells EL4 s.c. on day 0), LTS ("long term survivor") means long-term surviving mice without evidence of tumour (at least until day 70 after administration of tumour cells). The last line contains information about the median survival in groups.

NB4/DOX = assay: IC50 of drugs with/without block copolymer, AlamarBlue method; format: cell-based; conditions: cells pre-incubated 1 hour with/without block copolymer at 250 µg/mL
Experimental: (§3) In in vitro experiments the cells were first incubated for 1 hour with/without a diblock or triblock copolymer at a concentration 250 µg/mL and thereto were added the above mentioned drugs in a concentration series. After 72 hours of incubation the metabolic activity of cells was determined using the AlamarBlue method and from it the IC50 of individual drugs. An experiment was performed with non-degradable diblock polymers PHPMA-PPO (Example 20) and triblock polymers (PHPMA)2-PPO (Example 21) as a control.

NB3/DOX = assay: as above; format: cell-based; conditions: cells pre-incubated 1 hour with/without block copolymer at 250 µg/mL
Experimental: as §3

[3] = system: FaDu - a human line of squamous cell carcinoma of the head and neck; assay: Cytostatic activity, 3H-thymidine incorporation; format: cell-based; conditions: 72 hours
Experimental: (§4) These were murine tumour cell lines (CT26 - colon carcinoma cell line, 4T1 - mammary carcinoma cell line, both originating from the BALB/c inbred strain of mice, followed by EL4.IL-2-line of T-cell lymphoma originating from the C57BL/6 inbred strain of mice) and FaDu - a human line of squamous cell carcinoma of the head and neck. […] The cell proliferation was then determined using the standard method of incorporating ^3H-thymidine which was added for the last 6 hours of culture. Subsequently, the cultures were processed using the Tomtec Mach III harvester and, after drying, the radioactivity of samples obtained was measured by the beta-scintillation counter Microbeta Trilux (Wallac) using a solid scintillant (MeltiLex; Perkin Elmer). […] The activity of conjugates was determined by 3H-thymidine incorporation after 72 hours of incubation of cells with various concentrations of drugs. The IC50 values are given in ng of doxorubicin/mL and were calculated as a mean of several independent determinations.

[4] = system: 4T1 - mammary carcinoma cell line; assay: Cytostatic activity, 3H-thymidine incorporation; format: cell-based, murine; conditions: Mus musculus; 4T1, 72 hours
Experimental: as §4

[5] = system: EL4.IL-2-line of T-cell lymphoma; assay: Cytostatic activity, 3H-thymidine incorporation; format: cell-based, murine; conditions: Mus musculus, EL4.IL-2, 72 hours
Experimental: as §4

[6] = system: CT26 - colon carcinoma cell line; assay: Cytostatic activity, 3H-thymidine incorporation; format: cell-based, murine
Experimental: as §4

[7] = system: murine T-cell lymphoma EL4; format: in vivo
Experimental: as §1, §2

[8] = read-out: IC50 after 72 hours of incubation

**Q.** For “[raft-poly(HPMA-co-MA-AH-NHN=DTX-LEV)]-GFLG-PPO-NH2 [Example 28B]”, which “release of drug DTX (or its derivative)” value [1] is on record?
**A.** released significantly slower

**Q.** With COc1cccc2c1C(=O)c1c(O)c3c(c(O)c1C2=O)C[C@@](O)(C(=O)CO)C[C@@H]3O[C@H]1C[C@H](N)[C@H](O)[C@H](C)O1 [DOX, doxorubicin] as the compound, how does the complete cure ([2]; 2 x 5 mg DOX/kg i.v.) read?
**A.** none

**Q.** And the median survival ([2]; 2 x 5 mg DOX/kg i.v.)?
**A.** 40.5 days

**Q.** And the “tumour growth in comparison to untreated controls” value ([2]; 2 x 5 mg DOX/kg i.v.)?
**A.** the average tumour growth was slower than in the group of untreated mice, but showed a steady progression

**Q.** And the “Survival: day of death of individual animals after administration of tumour cells” value ([2]; 2 x 5 mg DOX/kg i.v. on days 8 and 12)?
**A.** 35 Days and 38 Days and 39 Days and 42 Days and 53 Days (2×)

**Q.** And the IC50 (NB4/DOX; [8])?
**A.** 2.61 ± 0.17 µg/mL (≈ 4.8 µM)

**Q.** What about the “IC50 after 72 hours of incubation” value (NB3/DOX) of the same compound?
**A.** 0.168 ± 0.005 µg/mL

**Q.** And the IC50 (NB3/DOX; [8])?
**A.** 0.215 ± 0.004 µg/mL (≈ 0.396 µM)

**Q.** And the IC50 [3]?
**A.** 0.0048 µg/mL (≈ 0.00883 µM)

**Q.** What about the IC50 [4] of the same compound?
**A.** 0.0143 µg/mL (≈ 0.0263 µM)

**Q.** And the IC50 [5]?
**A.** 0.0122 µg/mL (≈ 0.0224 µM)

**Q.** And the IC50 ([6]; Mus musculus, CT26, 72 hours)?
**A.** 0.0425 µg/mL (≈ 0.0782 µM)

**Q.** For “[raft-poly(HPMA-co-MA-AH-NHN=DOX)]-GFLG-PPO-NH2 [DB-DOX]”, which “first mouse with complete tumour regression, time after drug administration” value ([7]; 1 x 7.5 mg DOX eq./kg) is on record?
**A.** eighth day

**Q.** And the median survival ([7]; 1 x 7.5 mg DOX eq./kg i.v.)?
**A.** 47.5 days

**Q.** And the “tumour growth in comparison to untreated controls” value ([7]; 1 x 7.5 mg DOX eq./kg i.v.)?
**A.** tumour growth stagnation within three days and a significant reduction in growth between the third and sixth day after administration of the drug

**Q.** And the “Survival: day of death of individual animals after administration of tumour cells” value ([7]; 1 x 7.5 mg DOX eq./kg i.v. on day 8)?
**A.** 37 Days and 39 Days and 42 Days (2×) and 60 Days and LTS (LTS ("long term survivor") means long-term surviving mice without evidence of tumour (at least until day 70 after administration of tumour cells)) (3×)

**Q.** What about the “complete cure (share of subjects)” value ([7]; 1 x 7.5 mg DOX eq./kg i.v., 8 mice) of the same compound?
**A.** 37.5%

**Q.** And the “mice without apparent tumour at the place of administration” value ([7]; 13 days after drug administration, 1 x 7.5 mg DOX eq./kg)?
**A.** 4 mice (out of 8)

**Q.** What about the “resistance against tumour after retransplantation of cured mice (LTS)” value ([7]; retransplanted 119 days after the first tumour, no treatment) of the same compound?
**A.** of these three mice two were resistant

**Q.** And the “IC50 after 72 hours of incubation” value (NB4/DOX)?
**A.** 7.07 ± 0.11 µg/mL

**Q.** And the “IC50 after 72 hours of incubation” value (NB3/DOX)?
**A.** 0.919 ± 0.020 µg/mL

**Q.** What about the “decrease of the cytostatic effect of doxorubicin by binding the drug to a diblock carrier” value [6] of the same compound?
**A.** 2.6 times
